In patent US10722515B2, “Dual CLK/CDK1 inhibitors for cancer treatment” (SRI INTERNATIONAL, priority 2016, dated 2020):
Like-named read-outs stand apart in the source and are kept apart here.

How the values were obtained:
[1] = target: T1, CDK1/cyclinB(h) (Homo sapiens, UniProt P06493); assay: radiometric protein kinase assay, CDK1; assay type: biochemical; settings: enzyme inhibition, ATP 45 μM
T1 construct: purchased Eurofins, Dundee, Scotland
Procedure: (§1) Enzymatic biochemical activities were evaluated in radiometric protein kinase assays (Eurofins, Dundee, Scotland). Kinases are incubated with buffer, substrate and [γ-^33P]-ATP (specific activity approx. 500 cpm/pmol, concentration as required). The reaction is initiated by the addition of the MgATP mix. After incubation for 40 minutes at room temperature, the reaction is stopped by the addition of 3% phosphoric acid solution. 10 μL of the reaction is then spotted onto a P30 filtermat and washed three times for 5 minutes in 75 mM phosphoric acid and once in methanol prior to drying and scintillation counting.
(§2) All compounds are prepared to 50× final assay concentration in 100% DMSO. Positive control wells contain all components of the reaction with 2% DMSO. Blank wells contain all components of the reaction, with a reference inhibitor replacing the compound of interest. Each kinase is assigned a standard assay concentration of ATP within 20 μM of its apparent KM. Compounds were screened at 1 μM in duplicate or tested at 10 concentrations at half log dilution starting from 10 μM in singlicate. Dose response curves were fitted with four parameter logistic curve to obtain IC50 values. The average coefficient of variation (CV) of the conducted assay is 4.4%.

[2] = target: T2, CLK3(h) (Homo sapiens, UniProt P49761); assay: radiometric protein kinase assay, CLK3; assay type: biochemical
T2 construct: purchased Eurofins, Dundee, Scotland
T2 sequence (P49761 whole entry): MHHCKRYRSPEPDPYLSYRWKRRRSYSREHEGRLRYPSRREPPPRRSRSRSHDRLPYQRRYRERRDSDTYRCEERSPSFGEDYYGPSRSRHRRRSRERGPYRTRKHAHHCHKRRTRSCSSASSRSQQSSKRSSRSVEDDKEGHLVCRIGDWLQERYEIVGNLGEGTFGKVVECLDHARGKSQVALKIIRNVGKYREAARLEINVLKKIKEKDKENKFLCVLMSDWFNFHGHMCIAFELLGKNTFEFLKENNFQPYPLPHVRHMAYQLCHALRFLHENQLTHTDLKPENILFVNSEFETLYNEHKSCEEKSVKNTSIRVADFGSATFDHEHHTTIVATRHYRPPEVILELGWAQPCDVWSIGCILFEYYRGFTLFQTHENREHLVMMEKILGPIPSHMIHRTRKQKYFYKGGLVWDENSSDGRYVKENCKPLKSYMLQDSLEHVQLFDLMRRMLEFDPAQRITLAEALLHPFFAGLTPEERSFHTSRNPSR
Procedure: as §1, §2

[3] = tested on: SK-MEL-2/Luc-MDM2 cells (MDM2-Luc exon-skipping reporter); assay: cell-based MDM2-Luc exon-skipping reporter assay; settings: for luciferase response (Luc fold) in the MDM2-Luc reporter assay: compared with less potent CLK inhibitors of the series; for MDM2/Luc: luciferase activation vs DMSO control, average of three experiments
[4] = target: T3, CDK6/cyclinD3(h) (Homo sapiens, UniProt Q00534); assay: radiometric protein kinase assay, CDK6; assay type: biochemical; settings: enzyme inhibition, ATP 20 μM
T3 construct: purchased Eurofins, Dundee, Scotland
T3 sequence (Q00534 whole entry): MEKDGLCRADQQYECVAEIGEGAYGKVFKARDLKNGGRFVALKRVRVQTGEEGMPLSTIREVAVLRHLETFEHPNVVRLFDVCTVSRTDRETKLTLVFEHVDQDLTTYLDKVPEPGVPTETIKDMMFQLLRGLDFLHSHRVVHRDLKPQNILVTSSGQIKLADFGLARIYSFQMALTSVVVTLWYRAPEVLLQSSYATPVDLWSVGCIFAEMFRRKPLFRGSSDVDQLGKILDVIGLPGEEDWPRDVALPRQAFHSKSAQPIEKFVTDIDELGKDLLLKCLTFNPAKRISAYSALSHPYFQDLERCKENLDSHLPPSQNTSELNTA
T3 sequence (P30281 whole entry partner): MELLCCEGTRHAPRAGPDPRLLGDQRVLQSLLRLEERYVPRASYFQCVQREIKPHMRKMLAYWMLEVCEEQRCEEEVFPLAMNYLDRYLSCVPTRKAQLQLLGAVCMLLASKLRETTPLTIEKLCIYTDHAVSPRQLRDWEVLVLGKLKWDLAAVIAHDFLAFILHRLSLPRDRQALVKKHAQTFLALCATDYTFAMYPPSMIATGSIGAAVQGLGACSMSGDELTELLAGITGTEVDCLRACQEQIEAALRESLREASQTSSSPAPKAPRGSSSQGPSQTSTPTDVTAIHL
Procedure: as §1, §2

[5] = target: T4, CDK4/cyclinD3(h) (Homo sapiens, UniProt P11802); assay: radiometric protein kinase assay, CDK4; assay type: biochemical; settings: enzyme inhibition, ATP 20 μM
T4 construct: purchased Eurofins, Dundee, Scotland
T4 sequence (P11802 whole entry): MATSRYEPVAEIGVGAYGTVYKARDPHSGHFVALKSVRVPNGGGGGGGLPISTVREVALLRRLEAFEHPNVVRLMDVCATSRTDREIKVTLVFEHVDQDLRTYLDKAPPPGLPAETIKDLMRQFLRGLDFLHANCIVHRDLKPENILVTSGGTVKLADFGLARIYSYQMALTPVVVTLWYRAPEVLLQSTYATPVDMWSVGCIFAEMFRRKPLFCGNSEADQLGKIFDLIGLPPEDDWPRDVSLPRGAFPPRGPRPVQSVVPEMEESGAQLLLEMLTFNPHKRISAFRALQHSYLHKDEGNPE
T4 sequence (P30281 whole entry partner): as the sequence (P30281 whole entry partner) above
Procedure: as §1, §2

[6] = target: T5, CLK4(h) (Homo sapiens, UniProt Q9HAZ1); assay: radiometric protein kinase assay, CLK4; assay type: biochemical; settings: enzyme inhibition, ATP 10 μM
T5 construct: purchased Eurofins, Dundee, Scotland
T5 sequence (Q9HAZ1 whole entry): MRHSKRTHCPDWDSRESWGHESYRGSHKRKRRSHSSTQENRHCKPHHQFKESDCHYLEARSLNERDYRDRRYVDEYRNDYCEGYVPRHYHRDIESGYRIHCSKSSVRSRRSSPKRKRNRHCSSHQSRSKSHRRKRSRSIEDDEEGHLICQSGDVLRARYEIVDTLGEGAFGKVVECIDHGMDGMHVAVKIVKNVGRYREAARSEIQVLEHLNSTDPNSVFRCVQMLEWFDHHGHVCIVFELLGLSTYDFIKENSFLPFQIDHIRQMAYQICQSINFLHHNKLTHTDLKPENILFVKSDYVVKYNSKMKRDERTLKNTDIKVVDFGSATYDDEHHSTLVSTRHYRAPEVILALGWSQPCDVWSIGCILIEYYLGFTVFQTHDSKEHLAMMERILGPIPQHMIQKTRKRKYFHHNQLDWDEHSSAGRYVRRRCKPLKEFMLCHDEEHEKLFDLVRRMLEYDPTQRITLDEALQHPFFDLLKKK
Procedure: as §1, §2

[7] = target: T6, CLK1(h) (Homo sapiens, UniProt P49759); assay: radiometric protein kinase assay, CLK1; assay type: biochemical
T6 construct: purchased Eurofins, Dundee, Scotland
T6 sequence (P49759 whole entry): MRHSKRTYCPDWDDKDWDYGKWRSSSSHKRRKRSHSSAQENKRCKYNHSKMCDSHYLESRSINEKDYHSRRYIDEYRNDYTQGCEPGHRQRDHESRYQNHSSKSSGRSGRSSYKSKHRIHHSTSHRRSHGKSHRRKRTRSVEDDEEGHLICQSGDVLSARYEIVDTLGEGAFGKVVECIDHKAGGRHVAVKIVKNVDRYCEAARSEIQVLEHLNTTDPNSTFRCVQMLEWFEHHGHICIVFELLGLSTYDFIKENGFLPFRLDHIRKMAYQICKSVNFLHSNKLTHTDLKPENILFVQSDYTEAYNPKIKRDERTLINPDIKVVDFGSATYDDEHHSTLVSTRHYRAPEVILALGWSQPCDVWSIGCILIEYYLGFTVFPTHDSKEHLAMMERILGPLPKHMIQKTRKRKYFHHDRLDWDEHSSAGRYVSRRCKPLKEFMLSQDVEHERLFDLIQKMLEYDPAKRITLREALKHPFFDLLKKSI
Procedure: as §1, §2

[8] = target: T7, CLK2(h) (Homo sapiens, UniProt P49760); assay: radiometric protein kinase assay, CLK2; assay type: biochemical; settings: enzyme inhibition, ATP 10 μM
T7 construct: purchased Eurofins, Dundee, Scotland
T7 sequence (P49760 whole entry): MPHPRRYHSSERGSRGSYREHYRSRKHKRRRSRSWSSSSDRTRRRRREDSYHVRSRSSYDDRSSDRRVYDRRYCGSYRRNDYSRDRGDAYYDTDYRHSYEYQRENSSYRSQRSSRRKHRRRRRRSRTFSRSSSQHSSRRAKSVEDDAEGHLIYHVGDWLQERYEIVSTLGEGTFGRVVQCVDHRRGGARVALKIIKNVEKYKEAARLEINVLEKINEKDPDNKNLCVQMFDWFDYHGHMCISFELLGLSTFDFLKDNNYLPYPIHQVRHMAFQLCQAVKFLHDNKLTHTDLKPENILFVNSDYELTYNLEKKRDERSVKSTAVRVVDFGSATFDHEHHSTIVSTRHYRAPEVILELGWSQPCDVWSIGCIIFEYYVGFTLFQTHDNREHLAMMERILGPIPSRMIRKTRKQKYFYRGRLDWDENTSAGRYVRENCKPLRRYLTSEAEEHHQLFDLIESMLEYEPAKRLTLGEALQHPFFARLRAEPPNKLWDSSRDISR
Procedure: as §1, §2

[9] = tested on: MDM2 alternate splicing in Rh-18 cells; assay: Rh-18 MDM2 RT-PCR gel-based assay (orthogonal secondary assay); assay type: cell-based; settings: 10 μM, 8 h
Procedure: These hits were then subjected to a confirmatory assay in the Rh-18 MDM2 RT-PCR gel-based assay at a concentration of 10 μM.
Referring to FIG. 6, cells were exposed to 0.5% DMSO, 0.2 μM sudemycin D6 or […] CGP-74514A for 8 h. Total RNA was extracted by RNeasy Mini Kit (Qiagen). High capacity RNA-to-cDNA kit (Life technologies) was used to convert the RNA to cDNA.
Referring to FIG. 7, cells were exposed to 0.5% DMSO (lane 1), 1 μM sudemycin D6 (lane 2), 10 μM Compound 14 (lane 3), and 10 μM Compound 15 (lane 4) for 8 h. The total RNA was extracted by RNeasy Mini Kit (Qiagen). High capacity RNA-to-cDNA kit (Life technologies) was used to convert the RNA to cDNA. […] Ubiquitin transcripts (165 bp) in the same cells were used as a control (Fan et al. (2011) ACS Chem. Biol. 6: 582-9).

[10] = enzyme inhibition, radiometric, ATP 90 μM, read-out: IC50 (nM) CLK3
[11] = enzyme inhibition, radiometric, ATP 10 μM, read-out: IC50 (nM) CLK1

T1 sequence (P06493 whole entry): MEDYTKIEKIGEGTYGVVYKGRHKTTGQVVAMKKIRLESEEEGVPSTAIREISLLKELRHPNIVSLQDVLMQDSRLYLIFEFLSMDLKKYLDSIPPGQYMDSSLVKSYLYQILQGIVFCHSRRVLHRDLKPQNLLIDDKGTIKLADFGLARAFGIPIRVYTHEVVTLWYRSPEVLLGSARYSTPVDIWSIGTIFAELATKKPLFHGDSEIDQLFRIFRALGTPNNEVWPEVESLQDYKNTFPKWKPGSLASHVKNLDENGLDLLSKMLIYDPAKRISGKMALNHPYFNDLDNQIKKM
T1 sequence (P14635 whole entry partner): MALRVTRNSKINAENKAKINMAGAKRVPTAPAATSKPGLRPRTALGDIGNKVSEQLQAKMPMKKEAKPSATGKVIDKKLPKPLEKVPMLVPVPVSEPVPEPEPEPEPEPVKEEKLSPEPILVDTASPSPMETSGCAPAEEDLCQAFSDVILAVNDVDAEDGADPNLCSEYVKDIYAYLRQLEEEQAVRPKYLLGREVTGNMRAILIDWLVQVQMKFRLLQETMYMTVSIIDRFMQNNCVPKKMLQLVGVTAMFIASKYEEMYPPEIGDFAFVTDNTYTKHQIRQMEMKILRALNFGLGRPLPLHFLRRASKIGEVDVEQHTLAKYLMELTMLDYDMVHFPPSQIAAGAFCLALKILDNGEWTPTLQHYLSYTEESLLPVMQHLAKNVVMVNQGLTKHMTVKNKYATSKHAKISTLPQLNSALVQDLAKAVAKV

Row | Structure (SMILES) | IC50 [1] [nM] | IC50 [2, 10] [nM] | luciferase response (Luc fold) in the MDM2-Luc reporter assay [3] | MDM2/Luc [3] | IC50 [4] [nM] | IC50 [5] [nM] | IC50 [6] [nM] | IC50 [7, 11] [nM] | IC50 [8] [nM] | MDM2-Luc activity ([3]; result in words, no concentration stated) | activity in the Rh-18 MDM2 RT-PCR gel-based confirmatory assay [9] | IC50 [2] [nM] | IC50 [7] [nM]
1 | CC(C)n1cnc2c(Nc3cccc(Cl)c3)nc(N[C@H]3CCCC[C@H]3N)nc21 [Compound 10, N^2-((1S,2R)-2-Aminocyclohexyl)-N^6-(3-Chlorophenyl)-9-Isopropyl-9H-Purine-2,6-Diamine] | > 1000 | > 1000 | stronger luciferase response | Active | > 1000 | > 1000 | 70 | 74 | 26 |  |  |  | 
2 | CC(=O)Nc1cc(Cl)cc(Nc2nc(NC3CCCCC3N)nc3c2ncn3C(C)C)c1 (racemic) [Compound 15, Racemic N-Cis(3-((2-((2-Aminocyclohexyl)Amino)-9-Isopropyl-9H-Purin-6-Yl)Amino)-5-Chlorophenyl)Acetamide] | > 1000 | > 1000 | stronger luciferase response | Active | > 1000 | 930 | 64 | 19 | 13 | strong MDM2-Luc activity | confirmation |  | 
3 | CCn1cnc2c(Nc3cccc(Cl)c3)nc(N[C@@H]3CCCC[C@H]3N)nc21 [Compound 5, N-((1R,2R)-2-Aminocyclohexyl)-V-(3-Chlorophenyl)-9-Ethyl-9H-Purine-2,6-Diamine] | 546 |  |  | Active | > 1000 | > 1000 | > 1000 | 868 | 498 |  |  | > 1000 | 
4 | CC(C)n1cnc2c(Nc3cc(N)cc(Cl)c3)nc(N[C@@H]3CCNC3)nc21 [Compound 25, (R)—N^6-(3-Amino-5-Chlorophenyl)-9-Isopropyl-N^2-(Pyrrolidin-3-Yl)-9H-Purine-2,6-Diamine] | > 1000 | > 1000 |  |  | > 1000 | > 1000 | 299 | 118 | 92 |  |  |  | 
5 | CCn1cnc2c(Nc3cccc(Cl)c3)nc(NC3CCCCC3N)nc21 (racemic) [CGP-74514A (1), Racemicm-(Cis-2-Aminocyclohexyl)-N-(3-Chlorophenyl)-9-Ethyl-9H-Purine-2,6-Diamine, reference compound] | 382 |  |  | Active | > 1000 | 573 | 104 |  | 111 |  | clear activity | > 1000 | 148
6 | CC(=O)Nc1cc(Cl)cc(Nc2nc(N[C@H]3CCCC[C@H]3N)nc3c2ncn3C(C)C)c1 [Compound 19, N-(3-((2-(((1S,2R)-2-Aminocyclohexyl)Amino)-9-Isopropyl-9H-Purin-6-Yl)Amino)-5-Chlorophenyl)Acetamide] | > 1000 | > 1000 |  |  | > 1000 | > 1000 | 31 | 26 | 17 |  |  |  | 
7 | CC(C)[C@H](CO)Nc1nc(Nc2cc(N)cc(Cl)c2)c2ncn(C(C)C)c2n1 [Aminopurvalanol A, reference compound] |  |  |  |  |  |  |  |  |  |  | clear activity |  | 
8 | CC(C)n1cnc2c(Nc3cccc(Cl)c3)nc(N[C@@H]3CCCC[C@H]3N)nc21 [Compound 7, N-((1R,2R)-2-Aminocyclohexyl)-N^6-(3-Chlorophenyl)-9-Isopropyl-9H-Purine-2,6-Diamine] | > 1000 | > 1000 |  | Active | > 1000 | > 1000 | 634 | 400 | 120 |  |  |  | 
9 | CC(C)n1cnc2c(Nc3cc(N)cc(Cl)c3)nc(N[C@H]3CCCNC3)nc21 [Compound 22, (S)—N^6-(3-Amino-5-Chlorophenyl)-9-Isopropyl-N^2-(Piperidin-3-Yl)-9H-Purine-2,6-Diamine] | > 1000 | > 1000 |  |  | > 1000 | > 1000 | 61 | 31 | 26 |  |  |  | 
10 | CC(C)n1cnc2c(Nc3cc(N)cc(Cl)c3)nc(N[C@H]3CCCC[C@H]3N)nc21 [Compound 17, N^6-(3-Amino-5-Chlorophenyl)-N^2-((1 S,2R)-2-Aminocyclohexyl)-9-Isopropyl-9H-Purine-2,6-Diamine] | > 1000 | > 1000 |  |  | > 1000 | > 1000 | 28 | 21 | 26 |  |  |  | 
11 | CCn1cnc2c(Nc3cccc(Cl)c3)nc(N[C@H]3CCCC[C@@H]3N)nc21 [Compound 6, N^2-((1 S,2S)-2-Aminocyclohexyl)-V-(3-Chlorophenyl)-9-Ethyl-9H-Purine-2,6-Diamine] | > 1000 |  |  | Active | > 1000 | > 1000 | 498 | 371 | 190 |  |  | > 1000 | 
